Measurements as given in patent US9221809B2 (MERCK SHARP & DOHME CORP., priority 2011, dated 2015).
pIC50: −log10 of the molar value. Structures can show the parent of a compound that is named as a salt.

Target: IRAK4 (Homo sapiens (Human), UniProt Q9NWZ3)
Assay: IRAK4 kinase activity, IMAP fluorescence polarization assay
Assay type: biochemical
Conditions: 100 μM ATP, 0.5 nM GST tagged IRAK4; read-out: IRAK4 IC50
Method: The kinase activity of IRAK4 is determined by its ability to catalyze the phosphorylation of a fluorescent polypeptide substrate. The extent of phosphorylation is measured using IMAP technology (Molecular Devices) where the phosphorylated fluorescent substrate binds to the large M(III)-based nanoparticles which reduces the rotational speed of the substrate and thus increases its fluorescent polarization (FP).
Assay Procedure: A 20 μl reaction mixture contains 10 mM TriHCl, pH 7.2, 0.5 nM GST tagged IRAK4 (SignalChem), 100 nM fluorescent peptide substrate (RP7030, Molecular Devices), 100 μM ATP, 1 mM DTT, 1 mM MgCl2, and 0.01% Tween 20. The reaction is initiated by the addition of ATP. After incubation for 30 minutes at 25° C., 60 μl of Progressive IMAP Reagent (Molecular Devices) is added to stop the reaction. Change in RP7030's FP is determined by a FP reader (Analyst HT, LJL BioSystems)

Chain of IRAK4 (Q9NWZ3 whole entry): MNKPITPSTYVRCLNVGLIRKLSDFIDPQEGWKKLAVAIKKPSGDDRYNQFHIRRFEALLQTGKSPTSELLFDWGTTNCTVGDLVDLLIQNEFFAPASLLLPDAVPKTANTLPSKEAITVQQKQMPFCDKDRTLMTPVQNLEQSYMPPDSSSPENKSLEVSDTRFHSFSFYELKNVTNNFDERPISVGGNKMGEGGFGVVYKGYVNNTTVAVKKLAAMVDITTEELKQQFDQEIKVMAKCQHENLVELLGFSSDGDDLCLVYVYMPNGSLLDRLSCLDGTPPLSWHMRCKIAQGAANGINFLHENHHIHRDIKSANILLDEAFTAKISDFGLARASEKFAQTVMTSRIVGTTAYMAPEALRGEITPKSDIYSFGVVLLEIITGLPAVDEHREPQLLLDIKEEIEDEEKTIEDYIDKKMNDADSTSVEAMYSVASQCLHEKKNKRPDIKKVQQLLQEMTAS

Compound	pIC50
Cc1cccc(-c2c(N[C@@H]3C[C@H](CO)[C@@H](O)[C@H]3O)nc(N3CCCCC3)[nH]c2=O)n1 [Example 35, 6-(((1R,2S,3R,4R)-2,3-Dihydroxy-4-(hydroxymethyl)cyclopentyl)amino)-5-(6-methylpyridin-2-yl)-2-(piperidin-1-yl)pyrimidin-4(3H)-one.HCl]	6.53
O=c1[nH]c(N2CCOCC2)nc(N[C@@H]2CCCNC2)c1-c1nc2cccc(C(F)(F)F)c2s1 [Example 338, (R)-2-morpholino-6-(piperidin-3-ylamino)-5-(7-(trifluoromethyl)benzo[d]thiazol-2-yl)pyrimidin-4(3H)-one]	6.28
N#Cc1ccc2sc(-c3c(N[C@@H]4CCCNC4)nc(N4CCOCC4)[nH]c3=O)nc2c1 [Example 348, 2-[2-(morpholin-4-yl)-6-oxo-4-[[(3R)-piperidin-3-yl]amino]-1,6-dihydropyrimidin-5-yl]-1,3-benzothiazole-5-carbonitrile]	8.30
Cc1csc(-c2c(N[C@@H]3C[C@H](CO)[C@@H](O)[C@H]3O)nc(N3CCC(C(F)(F)F)CC3)[nH]c2=O)n1 [Example 33, 6-(((1R,2S,3R,4R)-2,3-Dihydroxy-4-(hydroxymethyl)cyclopentyl)amino)-5-(4-methylthiazol-2-yl)-2-(4-(trifluoromethyl)piperidin-1-yl)pyrimidin-4(3H)-one.HCl]	7.03
O=c1[nH]c(NC2CCC2)nc(N[C@@H]2C[C@H](CO)[C@@H](O)[C@H]2O)c1-c1nc2cnccc2s1 [Example 55, 2-(Cyclobutylamino)-6-((1R,2S,3R,4R)-2,3-dihydroxy-4-(hydroxymethyl)cyclopentylamino)-5-(thiazolo[4,5-c]pyridin-2-yl)pyrimidin-4(3H)-one.HCl]	8.60
CCc1nc(N[C@@H]2C[C@H](CO)[C@@H](O)[C@H]2O)c(-c2nc3ccccc3s2)c(=O)[nH]1 [Example 61, 5-(Benzo[d]thiazol-2-yl)-6-((1R,2S,3R,4R)-2,3-dihydroxy-4-(hydroxymethyl)cyclopentylamino)-2-ethylpyrimidin-4(3H)-one.HCl]	5.93

The next lines start with the values.

pIC50	Compound
8.19	O=c1[nH]c(N2CC3(CNC3)C2)nc(N[C@@H]2C[C@H](CO)[C@@H](O)[C@H]2O)c1-c1nc2ccccc2s1 [Example 16, 5-(Benzo[d]thiazol-2-yl)-6-((1R,2S,3R,4R)-2,3-dihydroxy-4-(hydroxymethyl)cyclopentylamino)-2-(2,6-diazaspiro[3.3]heptan-2-yl)pyrimidin-4(3H)-one.HCl]
7.72	O=c1[nH]c(NC2CCC2)nc(N[C@@H]2C[C@H](CO)[C@@H](O)[C@H]2O)c1-c1ccc2ccccc2n1 [Example 20, 2-(Cyclobutylamino)-6-((1R,2S,3R,4R)-2,3-dihydroxy-4-(hydroxymethyl)cyclopentylamino)-5-(quinolin-2-yl)pyrimidin-4(3H)-one.HCl]
6.24	O=c1[nH]c(NC2CCOCC2)nc(N[C@@H]2C[C@H](CO)[C@@H](O)[C@H]2O)c1-c1nc2ccccc2s1 [Example 8, 5-(Benzo[d]thiazol-2-yl)-6-((1R,2S,3R,4R)-2,3-dihydroxy-4-(hydroxymethyl)cyclopentylamino)-2-(tetrahydro-2H-pyran-4-ylamino)pyrimidin-4(3H)-one.HCl]
5.65	O=c1[nH]c(N2CCOCC2)nc(N[C@@H]2CCCNC2)c1-c1nc(-c2ccc(OC(F)(F)F)cc2)cs1 [Example 103, (R)-2-morpholino-6-(piperidin-3-ylamino)-5-(4-(4-(trifluoromethoxy)phenyl)thiazol-2-yl)pyrimidin-4(3H)-one.HCl]
6.74	O=c1[nH]c(C2CCN(c3ccccn3)CC2)nc(N[C@@H]2CCCNC2)c1-c1nc2ccccc2s1 [Example 242, (R)-5-(benzo[d]thiazol-2-yl)-6-(piperidin-3-ylamino)-2-(1-(pyridin-2-yl)piperidin-4-yl)pyrimidin-4(3H)-one]

Same assay, conditions: 100 μM ATP; read-out: IC50

Compound	pIC50
O=c1[nH]c(N[C@H]2c3ccccc3C[C@@H]2O)nc(N[C@@H]2CCCNC2)c1-c1nc2ccccc2s1 [Example 291, 5-(benzo[d]thiazol-2-yl)-2-((1S,2S)-2-hydroxy-2,3-dihydro-1H-inden-1-ylamino)-6-((R)-piperidin-3-ylamino)pyrimidin-4(3H)-one]	5.52
CC(C)N1CCC(c2nc(N[C@@H]3CCCNC3)c(-c3nc4ccccc4s3)c(=O)[nH]2)CC1 [Example 228, (R)-5-(1,3-benzothiazol-2-yl)-6-[[(3R)-piperidin-3-yl]amino]-2-[1-(propan-2-yl)piperidin-4-yl]-3,4-dihydro-pyrimidin-4-one]	6.18
N#Cc1ccc(-c2c(N[C@@H]3CCCNC3)nc(N3CCOCC3)[nH]c2=O)nc1 [Example 223, (R)-6-(2-morpholino-6-oxo-4-(piperidin-3-ylamino)-1,6-dihydropyrimidin-5-yl)nicotinonitrile]	7.09
O=c1[nH]c(N2CCOCC2)nc(NC(CO)CO)c1-c1nc2ccccc2s1 [Example 270, 5-(benzo[d]thiazol-2-yl)-6-(1,3-dihydroxy-propan-2-ylamino)-2-morpholinopyrimidin-4(3H)-one]	6.96
O=C1C[C@H](Nc2nc(N[C@@H]3CCCNC3)c(-c3nc4ccccc4s3)c(=O)[nH]2)Cc2ccccc2N1 [Example 304]	5.05

Further lines, results first:

pIC50	Compound
6.35	CC(=O)N1CCN(c2nc(N[C@@H]3CCCNC3)c(-c3nc4ccccc4s3)c(=O)[nH]2)CC1 [Example 316, 2-(4-acetylpiperazin-1-yl)-5-(1,3-benzothiazol-2-yl)-6-[[(3R)-piperidin-3-yl]amino]-3,4-dihydropyrimidin-4-one]
6.74	CCOC(=O)C1CN(c2nc(N[C@@H]3CCCNC3)c(-c3nc4ccccc4s3)c(=O)[nH]2)CCO1 (stereo partly drawn) [Example 321, ethyl 4-[5-(1,3-benzothiazol-2-yl)-6-oxo-4-[[(3R)-piperidin-3-yl]amino]-1,6-dihydropyrimidin-2-yl]morpholine-2-carboxylate; trifluoroacetic acid]
6.14	O=c1[nH]c(C2CCN(C3CCC3)CC2)nc(N[C@@H]2CCCNC2)c1-c1nc2ccccc2s1 [Example 230, (R)-5-(1,3-benzothiazol-2-yl)-2-[1-cyclo-butylpiperidin-4-yl)-6-[(piperidin-3-yl)amino]-3,4-dihydropyrimidin-4-one]
6.36	O=c1[nH]c(C2CCN(C3CCOCC3)CC2)nc(N[C@@H]2CCCNC2)c1-c1nc2ccccc2s1 [Example 234, (R)-5-(benzo[d]thiazol-2-yl)-6-(piperidin-3-ylamino)-2-(1-(tetrahydro-2H-pyran-4-yl)piperidin-4-yl)pyrimidin-4(3H)-one]

Same assay, conditions: 100 μM ATP; read-out: IRAK4 IC50

Compound	pIC50
O=c1[nH]c(N2CCOCC2)nc(N[C@@H]2CCCNC2)c1-c1nc(-c2ccc(Cl)cc2)cs1 [Example 202]	6.82
O=c1[nH]c(N2CCOC(CCO)C2)nc(N[C@@H]2CCCNC2)c1-c1nc2ccccc2s1 (stereo partly drawn) [Example 129, 5-(benzo[d]thiazol-2-yl)-2-(2-(2-hydroxyethyl)morpholino)-6-((R)-piperidin-3-ylamino)pyrimidin-4(3H)-one]	7.24
CS(=O)(=O)C1CN(c2nc(N[C@@H]3CCCNC3)c(-c3ccc4ccccc4n3)c(=O)[nH]2)C1 [Example 169, (R)-2-(3-(methylsulfonyl)azetidin-1-yl)-6-(piperidin-3-ylamino)-5-(quinolin-2-yl)pyrimidin-4(3H)-one]	7.49

Results, then the compound that gave them:

pIC50	Compound
7.21	CN(C)[C@@H]1CCN(c2nc(N[C@@H]3CCCNC3)c(-c3ccc4ccccc4n3)c(=O)[nH]2)C1 [Example 164, 2-((R)-3-(dimethylamino)pyrrolidin-1-yl)-6-((R)-piperidin-3-ylamino)-5-(quinolin-2-yl)pyrimidin-4(3H)-one]
7.96	O=c1[nH]c(N2CCN(c3ccc(C(F)(F)F)cn3)CC2)nc(N[C@@H]2CCCNC2)c1-c1nc2ccccc2s1 [Example 135, (R)-5-(benzo[d]thiazol-2-yl)-6-(piperidin-3-ylamino)-2-(4-(5-(trifluoromethyl)pyridin-2-yl)piperazin-1-yl)pyrimidin-4(3H)-one]
7.38	O=c1[nH]c(N2CCN(c3cccc(C(F)(F)F)c3)CC2)nc(N[C@@H]2CCCNC2)c1-c1nc2ccccc2s1 [Example 152, (R)-5-(benzo[d]thiazol-2-yl)-6-(piperidin-3-ylamino)-2-(4-(3-(trifluoromethyl)phenyl)piperazin-1-yl)pyrimidin-4(3H)-one]
7.46	CO[C@H]1CCN(c2nc(N[C@@H]3CCCNC3)c(-c3ccc4ccccc4n3)c(=O)[nH]2)C1 [Example 178, 2-((S)-3-methoxypyrrolidin-1-yl)-6-((R)-piperidin-3-ylamino)-5-(quinolin-2-yl)pyrimidin-4(3H)-one]

Same assay, conditions: unit inferred; 100 μM ATP; read-out: IRAK4 IC50

pIC50	Compound
7.51	O=c1[nH]c(N2CCC(c3ccncc3)C2)nc(N[C@@H]2C[C@H](CO)[C@@H](O)[C@H]2O)c1-c1nc2ccccc2s1 (stereo partly drawn) [Example 76, 5-(benzo[d]thiazol-2-yl)-6-((1R,2S,3R,4R)-2,3-dihydroxy-4-(hydroxymethyl)cyclopentylamino)-2-(3-(pyridin-4-yl)pyrrolidin-1-yl)pyrimidin-4(3H)-one]
7.93	O=c1[nH]c(N2CCC(n3ccnn3)CC2)nc(N[C@@H]2C[C@H](CO)[C@@H](O)[C@H]2O)c1-c1nc2ccccc2s1 [Example 67, 2-(4-(1H-1,2,3-triazol-1-yl)piperidin-1-yl)-5-(benzo[d]thiazol-2-yl)-6-((1R,2S,3R,4R)-2,3-dihydroxy-4-(hydroxymethyl)cyclopentylamino)pyrimidin-4(3H)-one]
